The source of these data is article PMC6427912 (Journal of medicinal chemistry, 2019).

Each structure is given as a SMILES string. Values after ≈ are worked out from the molar mass of the structure shown. Values joined by “and” are separate entries in the source; they are usually repeats but may differ in a detail not shown here. Equal entries are not always repeated. Where two headings read alike, the source gives them in different places. Where only a bound is given, the exact number is not on record here.

One data set concerns B. anthracis Sterne. It counts as cell-based, Bacillus anthracis. The settings on record: B. anthracis Sterne growth inhibition.
The next data set concerns S. aureus. Briefly: S. aureus growth inhibition assay. The settings on record: for Sa ED50: S. aureus growth inhibition. It counts as cell-based, Staphylococcus aureus.
Data set [1] concerns B. subtilis. Briefly: B. subtilis growth inhibition assay. It counts as cell-based, Bacillus subtilis.
A further data set has as its system Mycobacterium smegmatis. In words: M. smegmatis growth inhibition assay. The class given is cell-based.
Data set [2] in a line: HEK293 cell growth inhibition assay. The class given is cell-based, human. The note with it: human, HEK293 cells.
The next data set has as its system HEK293 cells. In words: HEK293 cell growth inhibition assay. It counts as cell-based, human. The settings on record: for HEK 293: HEK293 cell growth inhibition ED50, 24 hr incubation; for HEK293 toxicity (ED50): 96 hours incubation.
The subject of data set [3] is B. subtilis. The settings on record: cited from earlier work.
Data set [4] relates to B. subtilis. Briefly: B. subtilis serum binding assay. It counts as cell-based, Bacillus subtilis. The note with it: for effect of serum on B. subtilis growth inhibition: 4% or 10% fetal bovine serum.
The next data set concerns P. aeruginosa FPPS. The settings on record: read-out: activity against P. aeruginosa FPPS; cited from earlier work.
Data set [5] concerns the target EcOPPS (E. coli octaprenyl diphosphate synthase) (Escherichia coli, UniProt P0AD57). Briefly: OPPS enzyme inhibition assay. It counts as biochemical. The note with it: IC50 against EcOPPS.
Data set [6] concerns the target SaHepPPS (S. aureus heptaprenyl diphosphate synthase) (Staphylococcus aureus, UniProt Q2FYG6). In words: HepPPS enzyme inhibition assay. It counts as biochemical. The settings on record: IC50 against SaHepPPS.
In another data set the test system is E. faecium. The settings on record: cited from earlier work.
For a further data set, the system named is E. faecalis. The settings on record: cited from earlier work.
In data set [7] the test system is B. subtilis. In words: B. subtilis cell growth inhibition rescue assays. It counts as cell-based, Bacillus subtilis.
Data set [8] addresses T1, HsFPPS (human farnesyl diphosphate synthase) (Homo sapiens, UniProt P14324).
T1 sequence (P14324 1-419): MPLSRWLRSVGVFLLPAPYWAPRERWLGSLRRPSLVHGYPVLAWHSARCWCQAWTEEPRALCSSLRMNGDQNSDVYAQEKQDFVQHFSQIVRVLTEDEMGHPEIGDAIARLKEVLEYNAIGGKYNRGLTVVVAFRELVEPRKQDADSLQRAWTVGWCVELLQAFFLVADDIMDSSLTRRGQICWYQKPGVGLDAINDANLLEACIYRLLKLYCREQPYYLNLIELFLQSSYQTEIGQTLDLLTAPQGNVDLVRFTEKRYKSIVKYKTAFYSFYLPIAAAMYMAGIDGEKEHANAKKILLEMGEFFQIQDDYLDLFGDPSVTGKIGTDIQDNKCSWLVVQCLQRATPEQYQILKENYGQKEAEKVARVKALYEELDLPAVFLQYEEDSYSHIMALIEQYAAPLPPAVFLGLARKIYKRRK
Briefly: FPPS enzyme inhibition assay. It counts as biochemical.

The target in another data set is EcUPPS (Escherichia coli, UniProt P60472). In words: UPPS enzyme inhibition assay. The class given is biochemical, E. coli.
EcUPPS, sequence (P60472 whole entry): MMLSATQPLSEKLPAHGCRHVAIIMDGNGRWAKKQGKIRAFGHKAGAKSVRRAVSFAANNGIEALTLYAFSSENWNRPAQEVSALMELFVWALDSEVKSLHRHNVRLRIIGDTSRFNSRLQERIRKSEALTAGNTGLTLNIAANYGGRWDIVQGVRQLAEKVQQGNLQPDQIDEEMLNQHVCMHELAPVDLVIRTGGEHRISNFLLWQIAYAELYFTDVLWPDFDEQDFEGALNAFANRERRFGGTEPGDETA

EcOPPS (E. coli octaprenyl diphosphate synthase), sequence (P0AD57 whole entry): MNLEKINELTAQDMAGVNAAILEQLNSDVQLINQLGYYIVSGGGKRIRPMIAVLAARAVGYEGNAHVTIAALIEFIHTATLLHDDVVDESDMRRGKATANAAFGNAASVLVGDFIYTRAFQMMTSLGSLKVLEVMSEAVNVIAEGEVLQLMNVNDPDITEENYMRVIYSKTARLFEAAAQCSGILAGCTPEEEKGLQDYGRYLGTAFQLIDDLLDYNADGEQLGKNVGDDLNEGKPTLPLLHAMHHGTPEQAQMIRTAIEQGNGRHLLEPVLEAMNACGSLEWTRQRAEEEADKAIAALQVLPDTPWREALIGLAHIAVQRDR

On to `CC(C)CCCC(C)CCOc1cc[n+](CC(P(=O)([O-])O)P(=O)(O)O)cc1` (stereo not shown) [Compound 84, Hydrogen (2-(4-((3,7-dimethyloctyl)oxy)pyridin-1-ium-1-yl)-1-phosphonoethyl) phosphonate], for which the entries for the “Ba ED50” value with B. anthracis Sterne and with B. anthracis Sterne (value in parentheses) were 2.5 mg/L and 5.9 µM, respectively. Further, in the data set with S. aureus (value in parentheses), the “Sa ED50” value is 66 µM. In addition, the “Bs ED50” value in the data set with B. subtilis [1] (value in parentheses) was determined as 14 µM. Also, the “Ms ED50” value with Mycobacterium smegmatis (48 hours) came out at 150 mg/L; in the data set with Mycobacterium smegmatis (value in parentheses), 350 µM. In [2], the IC50 is ~1000 µM. In addition, the results for the “HEK 293” value in the data set on HEK293 cells and in the data set on HEK293 cells (value in parentheses) were 420 µg/mL and 1000 µM, respectively.

Take `CC(C)CCCC(C)CCCc1cc[n+](CC(P(=O)([O-])O)P(=O)(O)O)cc1` (stereo not shown) [Compound 80, Hydrogen(2-(4-(4,8-dimethylnonyl)pyridin-1-ium-1-yl)-1-phosphonoethyl) phosphonate]: the “Ba ED50” value in the data set on B. anthracis Sterne amounted to 2.2 mg/L; in the data set with B. anthracis Sterne (value in parentheses), 5.2 µM. In addition, the figures for the “Sa ED50” value in the data set with S. aureus and with S. aureus (value in parentheses) were 21 mg/L and 50 µM, respectively. Also, the “Bs ED50” value in the data set with B. subtilis [1] (12 hours) was determined as 3.1 mg/L; in the data set with B. subtilis [1] (value in parentheses) it was 7.4 µM. Moreover, the “Ms ED50” value with Mycobacterium smegmatis (48 hours) is 7.2 mg/L; with Mycobacterium smegmatis (value in parentheses), 17 µM. Besides, the IC50 in data set [2] is ~1000 µM. Besides, the results for the “HEK 293” value in the data set with HEK293 cells and in the data set on HEK293 cells (value in parentheses) were 295 µg/mL and 700 µM, respectively.

As to `O=P([O-])(O)C(Cn1cc[n+](CCCc2ccc(F)c(F)c2)c1)P(=O)(O)O` (stereo not shown) [Compound 72, reference compound], in the data set with B. subtilis [3], the “activity against B. subtilis” value is > 100 µg/mL. Moreover, the “increase in ED50 with 10% serum” value with B. subtilis [4] (B. subtilis, 10% serum) turned out to be 50%. Moreover, in the data set on P. aeruginosa FPPS, the IC50 is 0.1 to 0.2 µM. In addition, in the data set on HEK293 cells, the “HEK293 toxicity (ED50)” value is reported as 13 µM.

On to `O=P(O)(O)C(O)(Cn1ccnc1)P(=O)(O)O` [Compound 24, zoledronate], for which the IC50 in data set [5] was < 1 µM.

Turning to `CCCCCCCCCCCCCCOc1cccc(O)c1C(=O)O` [Compound 70], the IC50 in the data set with S. aureus (Staphylococcus aureus, read-out: IC50 for S. aureus cell growth inhibition) is 19 µM; in [6], 1 to 2 µM. The “MIC E. faecium cell growth” value with E. faecium is 4 mg/L (≈ 11.4 µM). For the same compound, the “MIC E. faecalis cell growth” value in the data set with E. faecalis is 4 mg/L (≈ 11.4 µM).

As for `CC(C)CCCC(C)CCOc1ccc[n+](CC(P(=O)([O-])O)P(=O)(O)O)c1` (stereo not shown) [Compound 74, Hydrogen(2-(3-((3,7-dimethyloctyl)oxy)pyridin-1-ium-1-yl)-1-phosphonoethyl) phosphonate], the “Ba ED50” value is 2.3 mg/L with B. anthracis Sterne and 5.4 µM in the data set with B. anthracis Sterne (value in parentheses). For the same compound, in the data set with B. subtilis [7] (50 µM HMBPP), the “increase in ED50 for B. subtilis growth inhibition, rescue by HMBPP” value was ~ 2 x. Besides, the “increase in ED50 for B. subtilis growth inhibition, rescue by MK-4” value with B. subtilis [7] (50 µM MK-4) is listed as ~ 5 x. Further, the “Sa ED50” value in the data set with S. aureus came out at 14 mg/L; with S. aureus (value in parentheses), 33 µM. Also, the IC50 in data set [8] is 0.2 µM and ~0.2 µM. For the same compound, the “Bs ED50” value in the data set with B. subtilis [1] (value in parentheses) turned out to be 2.4 µM. In addition, the entries for the “Ms ED50” value in the data set with Mycobacterium smegmatis (48 hours) and in the data set on Mycobacterium smegmatis (value in parentheses) were 5.9 mg/L and 14 µM, respectively. The “effect of serum on B. subtilis growth inhibition” value in the data set on B. subtilis [4] is “little effect”. Further, the “inhibition of UPPS” value against EcUPPS is “no inhibition”. The “HEK293 toxicity (ED50)” value in the data set on HEK293 cells was 76 µM and ~ 70 µM. In addition, the “HEK 293” value in the data set on HEK293 cells turned out to be 262 µg/mL. Further, the HEK293 toxicity in the data set with HEK293 cells (after 24 hrs) is ~ 0.5 mM.

Regarding `CCCCCCCCCCOc1ccc[n+](CC(P(=O)([O-])O)P(=O)(O)O)c1` (stereo not shown) [Compound 6], the IC50 in [5] was ~0.006 µM.

For `CCCCCCCCCCCCCc1ccc[n+](CC(P(=O)([O-])O)P(=O)(O)O)c1` (stereo not shown) [Compound 83, Hydrogen (1-phosphono-2-(3-tridecylpyridin-1-ium-1-yl)ethyl)phosphonate], the “Ba ED50” value worked out at 2.2 mg/L in the data set with B. anthracis Sterne and 4.9 µM in the data set on B. anthracis Sterne (value in parentheses). In addition, the “Sa ED50” value in the data set with S. aureus worked out at 30 mg/L; with S. aureus (value in parentheses), 67 µM. The figures for the “Bs ED50” value with B. subtilis [1] (12 hours) and with B. subtilis [1] (value in parentheses) were 5.5 mg/L and 12 µM, respectively. For the same compound, the “Ms ED50” value came to 7.2 mg/L in the data set with Mycobacterium smegmatis (48 hours) and 16 µM with Mycobacterium smegmatis (value in parentheses). In addition, the “HEK 293” value with HEK293 cells was determined as 22 µg/mL; with HEK293 cells (value in parentheses), 48 µM.

Consider `CC(C)CCCC(C)CCOc1ccnc(NC(P(=O)(O)O)P(=O)(O)O)c1` (stereo not shown) [Compound 95, (((4-((3,7-Dimethyloctyl)oxy)pyridin-2-yl)amino)methylene)bisphosphonic acid], for which the “Ba ED50” value in the data set on B. anthracis Sterne stood at 2.5 mg/L; with B. anthracis Sterne (value in parentheses) it was 5.2 µM. The figures for the “Sa ED50” value in the data set with S. aureus and in the data set with S. aureus (value in parentheses) were 69 mg/L and 140 µM, respectively. The “Bs ED50” value came out at 110 mg/L with B. subtilis [1] (12 hours) and 230 µM with B. subtilis [1] (value in parentheses). Besides, the “Ms ED50” value amounted to 79 mg/L with Mycobacterium smegmatis (48 hours) and 160 µM in the data set with Mycobacterium smegmatis (value in parentheses). The “HEK 293” value is 630 µg/mL in the data set with HEK293 cells and 1300 µM in the data set on HEK293 cells (value in parentheses).

`CCCCCCCCCCCc1ccc[n+](CC(P(=O)([O-])O)P(=O)(O)O)c1` (stereo not shown) [Compound 76, Hydrogen (1-phosphono-2-(3-undecylpyridin-1-ium-1-yl)ethyl)phosphonate]: the “Ba ED50” value was 0.6 mg/L with B. anthracis Sterne and 1.4 µM with B. anthracis Sterne (value in parentheses). Further, the “Sa ED50” value was 13 mg/L with S. aureus and 30 µM in the data set on S. aureus (value in parentheses). For the same compound, the “Bs ED50” value in the data set on B. subtilis [1] (12 hours) was 2.1 mg/L; in the data set on B. subtilis [1] (value in parentheses), 4.8 µM. Moreover, the “Ms ED50” value amounted to 6.1 mg/L in the data set on Mycobacterium smegmatis (48 hours) and 14 µM with Mycobacterium smegmatis (value in parentheses). The “effect of serum on B. subtilis growth inhibition” value in the data set with B. subtilis [4] is listed as “no effect”. Further, in the data set on HEK293 cells, the “HEK293 toxicity (ED50)” value came to 7.3 µM. Besides, the “HEK 293” value in the data set on HEK293 cells stood at 96 µg/mL.

Turning to `O=P(O)(O)C(O)(Cc1cccc(-c2cccc3c2oc2ccccc23)c1)P(=O)(O)O` [Compound 69], in the data set with S. aureus (value in parentheses), the “Sa ED50” value came out at 19 µM. The IC50 in data set [5] is ~330 µM; in [6] it was 1 to 2 µM.

Take `CC(C)CCCC(C)CCCc1ccc[n+](CC(P(=O)([O-])O)P(=O)(O)O)c1` (stereo not shown) [Compound 77, Hydrogen(2-(3-(4,8-dimethylnonyl)pyridin-1-ium-1-yl)-1-phosphonoethyl) phosphonate]: the “Ba ED50” value in the data set with B. anthracis Sterne stood at 2.1 mg/L; in the data set on B. anthracis Sterne (value in parentheses), 5.0 µM. Moreover, the “Sa ED50” value in the data set on S. aureus came out at 13 mg/L; with S. aureus (value in parentheses), 31 µM. Also, the “Bs ED50” value with B. subtilis [1] (12 hours) turned out to be 2.2 mg/L; in the data set on B. subtilis [1] (value in parentheses), 5.2 µM. Moreover, the “Ms ED50” value with Mycobacterium smegmatis (48 hours) was found to be 5.9 mg/L; with Mycobacterium smegmatis (value in parentheses), 14 µM. Moreover, the “effect of serum on B. subtilis growth inhibition” value in the data set on B. subtilis [4] was “no effect”. Also, the “HEK293 toxicity (ED50)” value in the data set with HEK293 cells was found to be 140 µM. In addition, the “HEK 293” value in the data set with HEK293 cells is 194 µg/mL.

Regarding `CC(C)CCCC(C)CCSc1ccc[n+](CC(P(=O)([O-])O)P(=O)(O)O)c1` (stereo not shown) [Compound 79, Hydrogen(2-(3-((3,7-dimethyloctyl)thio)pyridin-1-ium-1-yl)-1-phosphonoethyl) phosphonate], the “Ba ED50” value amounted to 0.4 mg/L with B. anthracis Sterne and 0.9 µM with B. anthracis Sterne (value in parentheses). For the same compound, the “Sa ED50” value in the data set on S. aureus came to 18 mg/L; in the data set on S. aureus (value in parentheses), 41 µM. Moreover, the “Bs ED50” value in the data set with B. subtilis [1] (12 hours) was 2.8 mg/L; with B. subtilis [1] (value in parentheses), 6.4 µM. Further, the “Ms ED50” value was 6.2 mg/L in the data set with Mycobacterium smegmatis (48 hours) and 14 µM with Mycobacterium smegmatis (value in parentheses). For the same compound, the “HEK 293” value in the data set on HEK293 cells came out at 224 µg/mL; in the data set on HEK293 cells (value in parentheses), 510 µM.
